Measured values taken from US10398788B2, “Polymer and contrast agent for photoacoustic imaging including the polymer” (CANON KABUSHIKI KAISHA, priority 2014, dated 2019).

Tests used:
[1] = background art; cited from earlier work
[2] = Photo-fading under near-infrared pulse laser irradiation; type: physicochemical; conditions: 4 irradiations
Procedure: With respect to each of Cy7-PMPC (58 k) represented by the formula (47), 700DX-PMPC (57 k) represented by the formula (48), 800CW-PMPC (57 k) represented by the formula (49) and 800RS-PMPC (57 k) represented by the formula (50) obtained in Examples 22, 23, 24 and 25, respectively, and ICG-PMPC (48 k) represented by formula (46) described in Example 12, 2.0 mL of a sample was prepared in which the concentration of each dye-bound PMPC was adjusted so that the absorbance at the maximum absorption wavelength was 0.15. A sample of single ICG as Comparative Example was also prepared. Herein, the irradiation wavelength of near-infrared pulse laser light by use of the PAT apparatus and the excitation wavelength in fluorescence spectrum measurement were set to be the maximum absorption wavelengths of each dye-bound PMPC and ICG. Herein, the excitation wavelengths and the fluorescence emission wavelengths of each dye-bound PMPC and ICG were summarized in FIG. 16. The amount of near-infrared pulse laser light was set to be 8 to 9 mJ at each wavelength, and irradiation at 120 points (detector position) per 20 times was defined as one irradiation and such irradiation was performed at most four times. […] The resultant sample was placed in a 100-μL cuvette, subjected to fluorescence spectrum measurement (FP-6300 manufactured by JASCO Corporation), and studied with respect to photo-fading. […]

CC1(C)C(/C=C/C=C/C=C/C=C2/N(CCCCS(=O)(=O)[O-])c3ccc4ccccc4c3C2(C)C)=[N+](CCCCS(=O)(=O)[O-])c2ccc3ccccc3c21.[Na+] [ICG, indocyanine green]
Half-life in blood [1]: about several minutes
Photo-fading: normalized fluorescent intensity remaining after laser irradiation [2]: about 15%
